Like-named read-outs stand apart in the source and are kept apart here.
Assays:
[1] = system: Human Monocytes (THP-1) cell line; assay: Estimation of autophagy using flow cytometer by CYTO-ID Autophagy Detection Kit; assay type: cell-based; settings: THP-1 cells in autophagy, 24 h treatment, amounts as in the group description
Procedure: [table] […] To each well of the 6 well plates, 2 mL of the diluted cell suspension was added. After 24 h, 1 mL of different test concentrations and combinations of test substances were added. […] THP-1 cells were incubated with Rapamycin, and test substances in a 6-well plate. Followed by incubation, cells from different groups were harvested and measured using CYTO-ID autophagy detection kit by flow cytometer. All the reagents, standard solutions and samples will be thawed to room temperature before use. The assay was carried out as per manufacturer's instructions.

[2] = system: Human Monocytes (THP-1) cell line; settings: 24 h
Procedure: The in vitro cytotoxicity was performed on Human Monocytes (THP-1) cell line to find the non-toxic concentrations of the test substances by WST-1 assay and evaluate their autophagic activity in Human Monocytes by CYTO-ID® Autophagy Detection Kit
About 10 mg of the test substances, N-(3-Aminopropyl)-1,4-butanediamine and N-α-Acetyl-N-β-alanyl-L-histidine were dissolved separately with 1 mL RPMI-1640 supplemented with 2% inactivated FBS to obtain a stock solution of 10 mg/mL concentration. Diluted the stock to desired concentrations for carrying out further studies.
THP-1 (Human Monocyte cells) was procured from NCCS, India. Stock cells were cultured in RPMI-1640 supplemented with 10% inactivated Fetal Bovine Serum (FBS), penicillin (100 IU/mL), streptomycin (100 μg/mL) and amphotericin B (5 μg/mL) in an humidified atmosphere of 5% CO2 at 37° C. until confluent. The stock cultures were grown in 25 cm^2 culture flasks and all experiments were carried out in 96 microtitre plates and 6 well plate (Tarsons India Pvt. Ltd., Kolkata, India).
The cell count was adjusted to 100,000 cells/mL using RPMI-1640 containing 10% FBS. To each well of the 96 well micro titre plate, 0.1 mL of the diluted cell suspension was added. After 24 h, 0.1 mL of different test concentrations were added in the micro titre plate. The untreated cells were maintained as cell control for comparison. The plate was then incubated at 37° C. for 24 h in 5% CO2 atmosphere, and microscopic examination was carried out and observations were noted. After 24 h, 20 μL of WST-1 added to each well and incubated for 3 h at 37° C. in 5% CO2 atmosphere. The plates were gently shaken and the absorbance was measured using a micro plate reader at a wavelength of 490 nm.

Row | Compound | Percentage cells expressed CYTO-ID [1] | Percentage cytotoxicity after treatment ([2]; 0.01 mg/mL) | Percentage cytotoxicity after treatment ([2]; 0.03 mg/mL) | Percentage cytotoxicity after treatment ([2]; 0.06 mg/mL) | Percentage cytotoxicity after treatment ([2]; 0.07 mg/mL) | Percentage cytotoxicity after treatment ([2]; 0.12 mg/mL) | Percentage cytotoxicity after treatment ([2]; 0.25 mg/mL) | Percentage cytotoxicity after treatment ([2]; 0.5 mg/mL) | Percentage cytotoxicity after treatment ([2]; 1 mg/mL) | Percentage cytotoxicity after treatment ([2]; 5 mg/mL)
1 | NCCCCNCCCN [N-(3-Aminopropyl)-1,4-butanediamine] | 7.24% | 0.74 ± 0.25% | 0.68 ± 2.30% | 0.94 ± 0.18% | 0.86 ± 2.08% | 1.20 ± 0.87% | 4.10 ± 1.63% | 11.79 ± 3.36% | 22.88 ± 2.80% | 39.37 ± 1.37%
2 | CC(=O)NCCC(=O)N[C@@H](Cc1c[nH]cn1)C(=O)O [N-α-Acetyl-N-β-alanyl-L-histidine] | 4.03% | – | – | – | – | – | – | – | – | –
3 | CO[C@H]1C[C@@H]2CC[C@@H](C)[C@@](O)(O2)C(=O)C(=O)N2CCCC[C@H]2C(=O)O[C@H]([C@H](C)C[C@@H]2CC[C@@H](O)[C@H](OC)C2)CC(=O)[C@H](C)/C=C(\C)[C@@H](O)[C@@H](OC)C(=O)[C@H](C)C[C@H](C)/C=C/C=C/C=C/1C [Rapamycin, reference compound] | 18.85% | – | – | – | – | – | – | – | – | –

Reference: patent publication US20250099531A1, “SYNERGISTIC COMPOSITIONS FOR ENHANCING TFEB-MEDIATED INTRACELLULAR CLEARANCE” (CELAGENEX RESEARCH (INDIA) PVT. LTD., priority 2022, published 2025)
